Test system: KL cells from bone marrow of NOD mice
Experiment: Flow cytometry of murine KL cells modulated with PGE2 or dmPGE2
Format: cell-based
Conditions: for CXCR4 among chemokine receptors on treated KL cells: chemokine receptor profile; for expression of PD-L2, PD-1, CD80 and CD40: vs unmodulated KL cells
From the text: FIGS. 19A-19G show the profile of murine KL cells. (FIG. 19A-19B) Representative flow cytometric analysis and quantitative bar graph of PD-L1 expression on Lineage^−c-kit^+ (KL) cells from NOD mice pre- and post-pharmacologic modulation with PGE2. (FIG. 19C-19D) Representative flow cytometric analysis and quantitative bar graph of CXCR4 expression on KL cells from NOD mice pre- and post-pharmacologic modulation with PGE2. (FIG. 19E) Quantitative bar graph of flow cytometric expression of positive and negative costimulatory molecules (CD40, CD80, CD86, PD-L1, PD-L2 and PD-1) and of select pro-inflammatory and anti-inflammatory cytokines (IFN-γ, IL-10, IL-4) in PGE2-modulated KL cells from NOD mice as compared to those modulated with a selected PGE2 clinical grade agonist (dmPGE2) and compared to unmodulated KL cells isolated from the bone marrow of normoglycemic NOD mice. (FIG. 19F) Flow cytometric expression of selected chemokine receptors (CXCR4, CCR2, CCR4, CCR5, CCR6, CCR7, CCR8, and CXCR3) in PGE2-modulated KL cells from NOD mice as compared to those modulated with a selected PGE2 clinical grade agonist (dmPGE2) and to unmodulated KL cells isolated from the bone marrow of normoglycemic NOD mice. (FIG. 19G) Quantitative bar graph of flow cytometric expression of chemokines receptors (CCR2, CCR4, CCR5, CCR6, CCR7, CCR8, CXCR3 and CXCR4) in PGE2-modulated KL cells from NOD mice as compared to those modulated with a selected PGE2 clinical grade agonist (dmPGE2) and compared to unmodulated KL cells isolated from the bone marrow of normoglycemic NOD mice. […] Abbreviations: KL, Lineage^−c-kit^+ cells.
Murine regulatory KL cell modulation. Murine bone marrow KL (c-Kit+Lineage-) cells were isolated using magnetic beads and MACS® separation columns (Miltenyi Biotec, San Diego, CA) and ˜2×10^5 cells were plated in a U-bottomed 96-well plate with 200 μl of stem cell medium, Stemspan-SFEMII (STEMCELL Technologies, Cambridge, MA) and PGE2 (PromoKine, PromoCell Gmbh, Germany) was added at day 0 and day 1, at a concentration of 10 μM.
Flow cytometric analysis and intracellular cytokine staining. Flow cytometry was performed to analyze surface expression markers of PGE2-modulated HSPCs and dmPGE2 (16, 16-dimethyl PGE2)-modulated HSPCs. Anti-mouse PD-L1, PD-L2, PD-1, CD40, CD80, CD86, CD4, CD8, Ly-6G (Gr-1), B220, CD3, CXCR4, CCR2, CCR4, CCR5, CCR6, CCR7, CCR8, CXCR3, IL-4, IL-10 and IFN-γ were purchased from BD Biosciences, eBioscience (San Diego, CA) and BioLegend. The following antibodies corresponded to isotype controls for the murine antibodies above: PE mouse IgG1, κ isotype ctrl, Armenian hamster IgG; APC mouse IgG2b, κ isotype ctrl, Armenian hamster IgG. Cells were subjected to FACS analysis and were run on a FACSCalibur™ (Becton Dickinson). Data were analyzed using FlowJo software version 8.7.3 (Treestar).
Murine PGE2-modulated HSPCs abrogate the autoimmune response in vitro. The feasibility of pharmacological modulation of PD-L1 with PGE2 was next explored in murine HSPCs. […] Moreover, the chemokine receptor profile of PGE2-modulated KL cells as compared to dmPGE2-modulated KL cells and unmodulated KL cells was explored in order to assess which chemokines are potentially involved in the homing of PGE2-modulated and dmPGE2-modulated KL cells. […] The immunoregulatory properties of PGE2-modulated KL cells was next explored in an autoimmune setting in vitro. PGE2-modulated KL cells generated from normoglycemic NOD mice were co-cultured at ratios of 1:1, 1:5 and 1:10 (KL cells to T cells) with CD11c+ DCs and BDC2.5 transgenic CD4+CD25− T cells in the presence of BDC2.5 peptide. […] Indeed, PGE2-modulated KL cells exerted a robust immunoregulatory effect even if added at low ratios (1:5 PGE2-treated KL cell to T cells). A less pronounced effect was observed when unmodulated KL were added to the assays. […] PGE2-modulated HSPCs are thus endowed with immunoregulatory properties and are capable of abrogating the autoimmune response in vitro. […]

SMILES	CXCR4 among chemokine receptors on treated KL cells	expression of PD-L2, PD-1, CD80 and CD40	CXCR4 expression on KL cells (FACS)	PD-L1 expression on KL cells (FACS, 10 μM day 0 and day 1)
CCCCC(C)(C)[C@H](O)/C=C/[C@H]1[C@H](O)CC(=O)[C@@H]1C/C=C\CCCC(=O)O [16,16-dimethyl PGE2]	most expressed	similarly upregulated		
CCCCC[C@H](O)/C=C/[C@H]1[C@H](O)CC(=O)[C@@H]1C/C=C\CCCC(=O)O [PGE2, prostaglandin E2]	most expressed	upregulation	markedly upregulated	upregulation

Source: patent US11879137B2, “Treatment of type 1 diabetes and autoimmune diseases or disorders” (THE CHILDREN'S MEDICAL CENTER CORPORATION, priority 2017, dated 2024)
